The source of these data is paper PMC10743905, “Design, Synthesis, and In Vitro and In Vivo Bioactivity Studies of Hydrazide–Hydrazones of 2,4-Dihydroxybenzoic Acid” (International Journal of Molecular Sciences, 2023).

The subject of series [1] is reference Gram-positive bacteria. Description: Broth microdilution, summary over the Gram-positive panel. Type of series: cell-based. The source says:
In vitro antimicrobial activity assays - Methodology
The examined compounds 1 - 24 were screened in vitro for antibacterial and antifungal activities using the broth microdilution method according to procedure reported earlier by our research group and European Committee on Antimicrobial Susceptibility Testing (EUCAST) and Clinical and Laboratory Standards Institute (CLSI) guidelines against a panel of reference and clinical or saprophytic strains of microorganisms, in-cluding Gram-positive bacteria, Staphylococcus aureus ATCC 43300 (Methicillin Resistant S. aureus – MRSA), Staphylococcus aureus ATCC 29213 (Methicillin Susceptible S. aureus – MSSA), Staphylococcus epidermidis ATCC 12228, Enterococcus faecalis ATCC 29212, Micro-coccus luteus ATCC 10240, Bacillus subtilis ATCC 6633 and Bacillus cereus ATCC 10876), Gram-negative bacteria (Bordetella bronchiseptica ATCC 4617, Escherichia coli ATCC 25922, Klebsiella pneumoniae ATCC 13883, Proteus mirabilis ATCC 12453, Salmonella typhimurium ATCC 14028 and Pseudomonas aeruginosa ATCC 9027) and fungi belonging to yeasts (Can-dida albicans ATCC 10231, Candida albicans ATCC 2091, Candida parapsilosis ATCC 22019, Candida glabrata ATCC 90030 and Candida krusei ATCC 14243). The microorganisms be-longing to ATCC came from American Type Culture Collection, routinely used for the evaluation of antimicrobials. […]
Samples containing examined compounds were dissolved in dimethyl sulfoxide (DMSO). […]
Subsequently, the MIC (Minimal Inhibitory Concentration) of the compounds was ex-amined by the microdilution broth method, using their two-fold dilutions in Mueller- […]
Hinton broth or (for bacteria) and RPMI 1640 broth with MOPS (for fungi) prepared in 96-well polystyrene plates. Final concentrations of the compounds ranged from 1000 to 0.488 µg/ml. Microbial suspensions were prepared in 0.85% NaCl with an optical density of 0.5 McFarland standard. Next each bacterial or fungal suspension was added per each well containing broth and various concentrations of the examined compounds. After incuba-
In general terms: Dilution methods test growth across graded concentrations, often in twofold steps.

The test system of the next series is HepG2. Description: MTT antiproliferative assay. The following applies: Homo sapiens, 24 h incubation, hepatocellular carcinoma. Type of series: cell-based. As for the experimental part: (§1) The in vitro studies were performed on the reference line HEK-293 (human embryonic kidney cells, ATCC® CRL-1573™) and […] human cancer cell lines: 769-P (adenocarcinoma, renal cells, ATCC® CRL-1933™) and HepG2 (carcinoma, hepatocellular, ATCC® HB-8065™), H1563 (adenocarcinoma, non-smallcell lung cancer, ATCC® CRL-5875™), LN-229 (glioblastoma, ATCC® CRL-2611™). Cells from the 769-P and H1563 cell lines were cultured in RPMI-1640 growth medium (PAN Biotech GmbH, Aidenbach, Bayern, Germany), cells from the HEK-293 and HepG2 cell lines were cultured in EMEM growth medium (PAN Biotech GmbH, Aidenbach, Bayern, Germany), and cells from the LN-229 cell line were cultured in DMEM growth medium (PAN Biotech GmbH, Aidenbach, Bayern, Germany) in sterile 75 cm^2 culture phalcones. Fetal bovine serum (PAN Biotech GmbH, Aidenbach, Bayern, Germany) at 10% of growth medium and antibiotics (Sigma-Aldrich, Poland) (2.5 µg/mL amphotericin B, 100 µg/mL penicillin, and 100 µg/mL streptomycin) were added to all media. Cells were cultured at 37 °C in an incubator with 5% CO2 flow until a cell layer was formed. Following this, the medium was removed, and the cells were washed with 0.25% trypsin solution with 2.21 mM EDTA (Corning Incorporated, Corning, NY, USA) in order to completely remove fetal bovine serum containing trypsin inhibitor. Finally, 6 mL of complete growth medium was added, and the cells were aspirated by gentle pipetting.
(§2) The determination of inhibitory concentration (IC50) in the HEK-293, 769-P, HepG2, H1563, and LN-229 cell cultures for selected hydrazide–hydrazones was performed using the MTT assay procedure. This test was performed according to the MTT Assay ECVAM n°17 protocol manual prepared by the European Centre for the Validation of Alternative Methods (ECVAM), an entity that aims to reduce in vivo testing in favor of in vitro and in silico methods. To 96-well sterile plates, 100 μL of cell suspensions, prepared in the appropriate medium at a concentration of 3 × 10^5 cells/mL, was added using a multichannel pipette. To achieve cell adhesion to the bottom of the plates, cells were incubated for 24 h at 37 °C with 5% CO2 flow and 90% humidity. […] After this time, all medium was removed, 100 μL of DMSO (Corning Incorporated, Corning, NY, USA) was added to each well, and absorbance measurements were performed at 550 nm using a Power Weave xs spectrophotometric microplate reader (BioTek, Winooski, VT, USA). The decrease in absorbance is equivalent to the decrease in MTT formazan production, which is due to the decrease in mitochondrial dehydrogenase activity and indicates a cytotoxic effect from the tested substances. Cell viability is expressed as a percentage as the ratio of the absorbance of test substance-treated cells to the untreated cells. […]

The subject of another series is HEK-293. The experiment in a line: MTT cytotoxicity assay, reference line. The following applies: Homo sapiens, HEK293, 24 h incubation, non-tumor reference line. Type of series: cell-based. As for the experimental part: as §1, §2

Structures are written as SMILES. Values after ≈ are worked out from the molar mass of the structure shown. Where two headings read alike, the source gives them in different places.

As to `CCCc1ccc(/C=N/NC(=O)c2ccc(O)cc2O)cc1` [Compound 13, 2,4-dihydroxy-N-[(4-propylphenyl)methylidene]benzohydrazide], the melting point (usually the temperature, or range, at which the solid turns liquid) worked out at 197 °C. In addition, the minimum bactericidal concentration (MBC) (in general, the lowest tested concentration that kills the bacteria rather than only halting them) in series [1] is greater than 1000 µg/mL. Also, in series [1] (read-out: MIC), the MIC – broadly, the least concentration at which growth counts as inhibited – was found to be 1000 µg/mL (≈ 3350 µM).

`O=C(N/N=C/c1cc(I)cc(I)c1O)c1ccc(O)cc1O` [Compound 18, 2,4-dihydroxy-N-[(2-hydroxy-3,5-diiodophenyl)methylidene]benzohydrazide]: the melting point was 220 °C. The MBC in series [1] is 1.95 to 31.2 µg/mL (≈ 3.72 to 59.6 µM). Moreover, in series [1] (read-out: MIC), the minimum inhibitory concentration (MIC) lay within 0.48 to 7.81 µg/mL (≈ 0.916 to 14.9 µM).

`O=C(N/N=C/c1ccccc1[N+](=O)[O-])c1ccc(O)cc1O` [Compound 19, 2,4-dihydroxy-N-[(2-nitrophenyl)methylidene]benzohydrazide]: the MIC in series [1] fell in the range of 250 to 1000 µg/mL (≈ 830 to 3320 µM). Moreover, in the series on HepG2, the IC50 (usually the concentration at which inhibition is half-maximal) is greater than 500 µM.

As to `O=C(N/N=C/c1cccc([N+](=O)[O-])c1)c1ccc(O)cc1O` [Compound 20, 2,4-dihydroxy-N-[(3-nitrophenyl)methylidene]benzohydrazide], the 50% inhibitory concentration (IC50) in the series with HEK-293 is 13400 µM; in the series on HepG2, greater than 500 µM.

In turn, `O=C(N/N=C/c1ccc([N+](=O)[O-])cc1)c1ccc(O)cc1O` [Compound 21, 2,4-dihydroxy-N-[(4-nitrophenyl)methylidene]benzohydrazide] gave an MIC in series [1] of 500 to 1000 µg/mL (≈ 1660 to 3320 µM). The molecule further displayed a concentration for half-maximal inhibition (IC50) in the series with HepG2 of 7.81 µM.

On to `O=C(N/N=C/c1ccccc1Cl)c1ccc(O)cc1O` [Compound 22, N-[(2-chlorophenyl)methylidene]-2,4-dihydroxybenzohydrazide], for which the IC50 with HEK-293 came out at 315 µM.

Molecule `O=C(N/N=C/c1ccccc1Br)c1ccc(O)cc1O` [Compound 23, N-[(2-bromophenyl)methylidene]-2,4-dihydroxybenzohydrazide] returned a half-inhibitory concentration (IC50) in the series on HEK-293 of 91800 µM.

As to `O=C(N/N=C/c1ccccc1F)c1ccc(O)cc1O` [Compound 24, N-[(2-fluorophenyl)methylidene]-2,4-dihydroxybenzohydrazide], the IC50 with HEK-293 was 387 µM; with HepG2 it was greater than 500 µM.
